The values that follow come from ChEMBL document CHEMBL5120746, “Novel 5-fluorouracil sensitizers for colorectal cancer therapy: Design and synthesis of S1P receptor 2 (S1PR2) antagonists” (Eur J Med Chem, 2022).

In general, MRT last refers to the average time that molecules of a dose stay in the body. As usually defined, the EC50 is the midpoint of the concentration-response curve. The term half-life denotes how long it takes for the measured level to halve. For orientation: AUC(0-inf) means the area under the concentration-time curve extrapolated to infinity.

The nature of series [1]: Downregulation of S1PR2 mRNA expression level in DPD expressed human HCT-116 cells at 20 uM measured after 24 hrs by qRT-PCR analysis. Format: functional. (In general: Quantitative PCR measures a nucleic acid by following its amplification.)
A short description of series [2]: Apparent volume of distribution in Sprague-Dawley rat plasma at 1 mg/kg, iv measured up to 24 hrs by HPLC-MS/MS analysis. To be noted: in vivo. Format: ADME, organism-based.
For series [3], the system named is SW620/5-FU. Nature of the series: Antitumor activity against human SW620/5-FU cells xenografted in SPF nude mouse assessed as reduction in tumor weight at 7.5 mg/kg, iv QD for 21 days. Format: functional. On the set-up: scale not given: the % may be the effect or the level left. To be noted: time 21 day. In general terms: In xenograft studies the graft and the host belong to different species.

The nature of series [4]: MRT (0 to t) in Sprague-Dawley rat plasma at 1 mg/kg, iv measured up to 24 hrs by HPLC-MS/MS analysis. The format is ADME, organism-based.
Series [5] in a line: Initial drug concentration in Sprague-Dawley rat plasma at 1 mg/kg, iv measured up to 24 hrs by HPLC-MS/MS analysis. The format is ADME, organism-based.
Series [6] in a line: MRT (0 to t) in Sprague-Dawley rat blood at 1 mg/kg, iv measured up to 24 hrs by HPLC-MS/MS analysis. Format: ADME, organism-based.
For series [7], the system named is SW620/5-FU. Nature of the series: Reversal of 5-FU resistance against human SW620/5-FU cells assessed as reduction in cell viability incubated for 48 hrs in presence of 5-FU by MTT assay. Format: functional, cell-based. A general note: Tetrazolium dyes change colour on reduction, which living cells bring about.
Series [8] deals with SW620/5-FU. As to the kind of experiment: Downregulation of DPD expression in human SW620/5-FU cells at 10 uM by Western blot analysis. Format: functional, cell-based. To be noted: time 4-48 hrs, TDE = time-dependent effect.
The subject of series [9] is SW620/5-FU. As to the kind of experiment: Antitumor activity against human SW620/5-FU cells xenografted in SPF nude mouse assessed as tumor growth inhibition at 15 mg/kg, iv QD for 21 days and measured every 4 days in presence of 5-fluorouracil. The format is functional. To be noted: 504 h, time 21 day, read-out: TGI.
A short description of series [10]: Half life in Sprague-Dawley rat blood at 1 mg/kg, iv measured up to 24 hrs by HPLC-MS/MS analysis. Format: ADME, organism-based.
Series [11] relates to SW620/5-FU. Nature of the series: Downregulation of DPD expression level in human SW620/5-FU cells measured after 12 hrs by Western blot analysis. The format is functional, cell-based. To be noted: dose 5-40 µM, DDE = dose-dependent effect.
Series [12] is described as follows: AUC (0 to infinity) in Sprague-Dawley rat blood at 1 mg/kg, iv measured up to 24 hrs by HPLC-MS/MS analysis. Format: ADME, organism-based. On the set-up: dose 1 mg/kg, time < 24 hrs, route iv.

SMILES strings stand for the structures.

Turning to `Cn1ncc2c(-c3ccc(F)cc3)cc(NNC(=O)Nc3cc(Cl)nc(Cl)c3)nc21`, the Activity was 25% in [1], 8.68% in the series with SW620/5-FU [3], “Tde” with SW620/5-FU [8] and “Dde” in the series on SW620/5-FU [11]. The “Vd(app)” value in [2] is 2 L/kg. The MRT last at 24 h in [4] was determined as 7.6 h; in series [6] it was 7.9 h. Also, in series [5], the C0 at 24 h stood at 4040 ng/mL. Further, the EC50 with SW620/5-FU [7] was determined as 9.15 µM. In the series on SW620/5-FU [9], the inhibition in vivo at 15 mg/kg was 52%. Besides, the half-life in [10] was 360 min. In series [12], the AUC(0-inf) turned out to be 11200 ng·h/mL.
